Data from article PMC6934184, “Selective DNA-PKcs inhibition extends the therapeutic index of localized radiotherapy and chemotherapy” (The Journal of Clinical Investigation, 2019).

Molecular target: T1, STK38L (NDR2) (Homo sapiens, UniProt Q9Y2H1)
T1 construct: purchased Thermo Fisher Scientific (Life Technologies) SelectScreen
Experiment: SelectScreen LanthaScreen
Type: binding
Conditions: read-out: % displacement
Summary of the method: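 SelectScreen broad panel; activity (Z'LYTE, Adapta) plus binding formats. ATP: Km app for CSF1R Z'LYTE; 10 for CAMK1 Adapta. Readout = % per kinase.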

T1 sequence (Q9Y2H1 whole entry): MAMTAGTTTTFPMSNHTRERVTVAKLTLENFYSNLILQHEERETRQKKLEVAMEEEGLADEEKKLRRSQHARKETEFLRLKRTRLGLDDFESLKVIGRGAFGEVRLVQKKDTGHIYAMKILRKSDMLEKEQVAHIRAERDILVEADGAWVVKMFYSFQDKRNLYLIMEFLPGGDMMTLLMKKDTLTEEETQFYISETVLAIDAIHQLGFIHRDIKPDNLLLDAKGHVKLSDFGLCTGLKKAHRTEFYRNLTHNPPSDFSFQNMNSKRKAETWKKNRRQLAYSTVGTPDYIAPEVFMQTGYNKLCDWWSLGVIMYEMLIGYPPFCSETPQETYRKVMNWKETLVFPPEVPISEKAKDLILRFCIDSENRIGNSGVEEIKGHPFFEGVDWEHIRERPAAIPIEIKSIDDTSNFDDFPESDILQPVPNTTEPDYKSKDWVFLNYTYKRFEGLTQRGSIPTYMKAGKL

`CN(C(=O)CN1CCOCC1)c1ccc2sc3c(-c4cccc5c(=O)cc(N6CC7CCC(C6)O7)oc45)cccc3c2c1` [NU5455] was tested, and the inhibition at 1 µM was -8.4%.
